Common to all, as to experiment: B1 Post-emergence efficacy Test 1
Holding throughout (assay type): in vivo
Conditions in all cases: post-emergence application, 1000 g/ha, evaluated after 13 days

Experiment [1] concerns Amaranthus retoflexus (AMARE). The protocol:
(§1) Seeds of a variety of test species are sown in standard soil in pots:—Solanum nigrum (SOLNI), Amaranthus retoflexus (AMARE), Setaria faberi (SETFA), Alopecurus myosuroides (ALOMY), Echinochloa crus-galli (ECHCG), Ipomoea hederacea (IPOHE), Lolium perenne (LOLPE). After 8 days cultivation (post-emergence) under controlled conditions in a glasshouse (at 24/16° C., day/night; 14 hours light; 65% humidity), the plants are sprayed with an aqueous spray solution derived from the formulation of the technical active ingredient in acetone/water (50:50) solution containing 0.5% Tween 20 (polyoxyethylene sorbitan monolaurate, CAS RN 9005-64-5). Compounds are applied at 1000 g/ha. The test plants are then grown in a glasshouse under controlled conditions in a glasshouse (at 24/16° C., day/night; 14 hours light; 65% humidity) and watered twice daily. After 13 days, the test is evaluated for the percentage damage caused to the plant. The biological activities are assessed on a five point scale (5=80-100%; 4=60-79%; 3=40-59%; 2=20-39%; 1=0-19%). A blank value in the table is indicative that the compound was not tested on that species.

For experiment [2], the system named is Echinochloa crus-galli (ECHCG). The protocol: as §1
Experiment [3] has as its system Ipomoea hederacea (IPOHE). The protocol:
as §1

Experiment [4] has as its system Lolium perenne (LOLPE). On the procedure: as §1
For experiment [5], the system named is Setaria faberi (SETFA). On the procedure:
as §1

For experiment [6], the system named is Solanum nigrum (SOLNI). On the procedure: as §1

For the molecule `Cc1nn(C)c(=O)c(-c2c(F)ccc(Cl)c2CCc2ccccc2)c1O` [Compound 1.001], in experiment [1], the “percentage damage caused to the plant, five point scale, AMARE” value (“percentage damage caused … AMARE” below) is reported as 5 (5=80-100%). Besides, in experiment [2], the “percentage damage caused to the plant, five point scale, ECHCG” value (“percentage damage caused … ECHCG” for short) is listed as 5 (5=80-100%). For the same molecule, in experiment [3], the “percentage damage caused to the plant, five point scale, IPOHE” value (from here on “percentage damage caused … IPOHE”) was 5 (5=80-100%). The “percentage damage caused to the plant, five point scale, LOLPE” value (from here on “percentage damage caused … LOLPE”) in experiment [4] was 5 (5=80-100%). In addition, in experiment [5], the “percentage damage caused to the plant, five point scale, SETFA” value (from here on “percentage damage caused … SETFA”) is 5 (5=80-100%). Moreover, the “percentage damage caused to the plant, five point scale, SOLNI” value (“percentage damage caused … SOLNI” for short) in experiment [6] is recorded as 5 (5=80-100%).

Take `Cc1nn(C)c(=O)c(-c2c(F)ccc(Cl)c2/C=C/c2ccccc2)c1O` [Compound 1.002]: the “percentage damage caused … AMARE” value in experiment [1] is 4 (4=60-79%). Moreover, in experiment [2], the “percentage damage caused … ECHCG” value was 4 (4=60-79%). The “percentage damage caused … IPOHE” value in experiment [3] was 5 (5=80-100%). Besides, the “percentage damage caused … LOLPE” value in experiment [4] is recorded as 4 (4=60-79%). For the same molecule, the “percentage damage caused … SETFA” value in experiment [5] is recorded as 3 (3=40-59%). Further, in experiment [6], the “percentage damage caused … SOLNI” value was 5 (5=80-100%).

Regarding `Cc1nn(C)c(=O)c(-c2c(F)ccc(Cl)c2CCc2ccc(Cl)cc2)c1O` [Compound 1.012], in experiment [1], the “percentage damage caused … AMARE” value was 5 (5=80-100%). Moreover, the “percentage damage caused … ECHCG” value in experiment [2] is given as 5 (5=80-100%). Besides, in experiment [3], the “percentage damage caused … IPOHE” value is recorded as 5 (5=80-100%). The “percentage damage caused … LOLPE” value in experiment [4] is recorded as 5 (5=80-100%). In addition, the “percentage damage caused … SETFA” value in experiment [5] is reported as 5 (5=80-100%). Also, the “percentage damage caused … SOLNI” value in experiment [6] is recorded as 5 (5=80-100%).

`Cc1nn(C)c(=O)c(-c2c(F)ccc(Cl)c2CCc2ccc(C(F)(F)F)cc2)c1O` [Compound 1.018]: the “percentage damage caused … AMARE” value in experiment [1] is on record as 5 (5=80-100%). The “percentage damage caused … ECHCG” value in experiment [2] is given as 5 (5=80-100%). Also, the “percentage damage caused … IPOHE” value in experiment [3] is given as 5 (5=80-100%). Moreover, in experiment [4], the “percentage damage caused … LOLPE” value is reported as 5 (5=80-100%). In addition, the “percentage damage caused … SETFA” value in experiment [5] is reported as 5 (5=80-100%). Further, the “percentage damage caused … SOLNI” value in experiment [6] is on record as 5 (5=80-100%).

Regarding `Cc1nn(C)c(=O)c(-c2c(F)ccc(Cl)c2CCc2cccnc2)c1O` [Compound 1.054], the “percentage damage caused … AMARE” value in experiment [1] was 5 (5=80-100%). The “percentage damage caused … ECHCG” value in experiment [2] was 5 (5=80-100%). For the same molecule, the “percentage damage caused … IPOHE” value in experiment [3] is 5 (5=80-100%). For the same molecule, the “percentage damage caused … LOLPE” value in experiment [4] is reported as 5 (5=80-100%). In addition, the “percentage damage caused … SETFA” value in experiment [5] is 5 (5=80-100%). Also, in experiment [6], the “percentage damage caused … SOLNI” value was 5 (5=80-100%).

As to `Cc1nn(C)c(=O)c(-c2c(F)ccc(Cl)c2CCc2ccc(F)c(F)c2)c1O` [Compound 1.060], the “percentage damage caused … AMARE” value in experiment [1] is 5 (5=80-100%). For the same molecule, the “percentage damage caused … ECHCG” value in experiment [2] is reported as 5 (5=80-100%). Further, in experiment [3], the “percentage damage caused … IPOHE” value was 5 (5=80-100%). Also, in experiment [4], the “percentage damage caused … LOLPE” value is 5 (5=80-100%). Besides, in experiment [5], the “percentage damage caused … SETFA” value is 5 (5=80-100%). In addition, the “percentage damage caused … SOLNI” value in experiment [6] is recorded as 5 (5=80-100%).

Regarding `Cc1nn(C)c(=O)c(-c2c(F)ccc(Cl)c2CCc2ccc(C(F)(F)F)cc2)c1OC(=O)C(C)C` [Compound 1.095], in experiment [1], the “percentage damage caused … AMARE” value is listed as 5 (5=80-100%). Further, in experiment [2], the “percentage damage caused … ECHCG” value is 5 (5=80-100%). For the same molecule, the “percentage damage caused … IPOHE” value in experiment [3] is given as 5 (5=80-100%). Further, the “percentage damage caused … LOLPE” value in experiment [4] is reported as 5 (5=80-100%). For the same molecule, the “percentage damage caused … SOLNI” value in experiment [6] was 5 (5=80-100%).

Regarding `Cc1ccc(CCc2c(Cl)ccc(F)c2-c2c(OC(=O)C(C)C)c(C)nn(C)c2=O)cc1` [Compound 1.149], in experiment [1], the “percentage damage caused … AMARE” value is 5 (5=80-100%). In addition, the “percentage damage caused … ECHCG” value in experiment [2] was 5 (5=80-100%). Besides, the “percentage damage caused … IPOHE” value in experiment [3] was 5 (5=80-100%). In experiment [4], the “percentage damage caused … LOLPE” value was 5 (5=80-100%). Besides, in experiment [5], the “percentage damage caused … SETFA” value was 5 (5=80-100%). For the same molecule, the “percentage damage caused … SOLNI” value in experiment [6] is on record as 5 (5=80-100%).

The record behind these values is patent US12162840B2, “Herbicidal compositions” (SYNGENTA PARTICIPATIONS AG, priority 2018, dated 2024).
